Test results published in ChEMBL document CHEMBL5465560, “Selectivity Literature for EUbOPEN Chemogenomic Library” (2024).
Blank lines part the entries; values can stand above or below the molecule they belong to.

What was measured:
[1] = biological target: Serine/threonine-protein kinase 33 (Homo sapiens) (UniProt Q9BYT3); assay: Selectivity interaction (KinomeScan (DiscoverX)) EUB0000607a STK33; details: at 10 µM
[2] = biological target: T1, Serine/threonine-protein kinase Sgk3 (Homo sapiens) (UniProt Q96BR1); assay: Selectivity interaction (ActivX KiNativ screen (kinase selectivity in THP-1 cell lysates)) EUB0000639a SGK3; type: subcellular; details: lysate, at 0.01 µM
T1 sequence (whole entry): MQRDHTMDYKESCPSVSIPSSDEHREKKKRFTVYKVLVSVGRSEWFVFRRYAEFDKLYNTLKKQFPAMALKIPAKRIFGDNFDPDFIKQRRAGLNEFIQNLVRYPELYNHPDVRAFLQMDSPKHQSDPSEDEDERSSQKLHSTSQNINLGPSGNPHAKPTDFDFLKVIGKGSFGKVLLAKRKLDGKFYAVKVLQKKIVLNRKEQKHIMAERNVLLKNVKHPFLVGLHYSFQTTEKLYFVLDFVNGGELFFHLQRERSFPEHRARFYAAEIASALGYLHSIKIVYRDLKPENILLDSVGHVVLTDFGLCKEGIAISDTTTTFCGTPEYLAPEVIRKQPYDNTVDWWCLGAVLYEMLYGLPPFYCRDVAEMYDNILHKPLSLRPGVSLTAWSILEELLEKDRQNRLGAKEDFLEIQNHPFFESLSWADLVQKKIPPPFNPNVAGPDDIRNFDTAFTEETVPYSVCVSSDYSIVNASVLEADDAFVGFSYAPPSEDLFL

[3] = biological target: Cyclin-dependent kinase-like 1 (Homo sapiens) (UniProt Q00532); assay: Selectivity interaction (KinomeScan (DiscoverX)) EUB0000595a CDKL1; details: at 10 µM
Sequence of Cyclin-dependent kinase-like 1 (Homo sapiens) (Q00532 whole entry, canonical isoform): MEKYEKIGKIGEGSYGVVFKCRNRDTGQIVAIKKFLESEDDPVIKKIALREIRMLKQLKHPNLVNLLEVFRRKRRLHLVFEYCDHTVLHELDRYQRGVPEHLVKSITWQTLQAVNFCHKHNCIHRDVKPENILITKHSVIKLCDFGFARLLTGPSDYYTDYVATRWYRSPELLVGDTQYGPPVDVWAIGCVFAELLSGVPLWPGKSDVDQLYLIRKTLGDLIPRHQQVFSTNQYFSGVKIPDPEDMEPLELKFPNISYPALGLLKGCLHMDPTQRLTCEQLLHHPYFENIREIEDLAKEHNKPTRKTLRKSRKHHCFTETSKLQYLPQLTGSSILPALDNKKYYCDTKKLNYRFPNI

[4] = biological target: Casein kinase I isoform epsilon (Homo sapiens, UniProt P49674); assay: Selectivity interaction (KinomeScan (DiscoverX)) EUB0001049a CSNK1E; details: at 1 µM
Sequence of Casein kinase I isoform epsilon (P49674 whole entry, looked up, canonical isoform): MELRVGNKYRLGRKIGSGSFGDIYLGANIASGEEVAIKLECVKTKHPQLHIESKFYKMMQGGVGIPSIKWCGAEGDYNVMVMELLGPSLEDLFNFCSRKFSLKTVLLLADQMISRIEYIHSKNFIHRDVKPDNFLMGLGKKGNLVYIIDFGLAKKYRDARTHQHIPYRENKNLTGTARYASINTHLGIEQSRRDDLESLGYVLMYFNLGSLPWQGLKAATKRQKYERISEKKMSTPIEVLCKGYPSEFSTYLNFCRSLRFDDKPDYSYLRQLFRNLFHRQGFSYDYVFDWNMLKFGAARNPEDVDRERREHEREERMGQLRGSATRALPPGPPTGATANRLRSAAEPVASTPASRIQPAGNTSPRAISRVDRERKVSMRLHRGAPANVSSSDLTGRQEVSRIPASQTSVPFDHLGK

[5] = biological target: T2, Tyrosine-protein kinase Tec (Homo sapiens) (UniProt P42680); assay: Selectivity interaction (KinomeScan (DiscoverX)) EUB0000092b TEC; details: at 10 µM
T2 sequence (whole entry): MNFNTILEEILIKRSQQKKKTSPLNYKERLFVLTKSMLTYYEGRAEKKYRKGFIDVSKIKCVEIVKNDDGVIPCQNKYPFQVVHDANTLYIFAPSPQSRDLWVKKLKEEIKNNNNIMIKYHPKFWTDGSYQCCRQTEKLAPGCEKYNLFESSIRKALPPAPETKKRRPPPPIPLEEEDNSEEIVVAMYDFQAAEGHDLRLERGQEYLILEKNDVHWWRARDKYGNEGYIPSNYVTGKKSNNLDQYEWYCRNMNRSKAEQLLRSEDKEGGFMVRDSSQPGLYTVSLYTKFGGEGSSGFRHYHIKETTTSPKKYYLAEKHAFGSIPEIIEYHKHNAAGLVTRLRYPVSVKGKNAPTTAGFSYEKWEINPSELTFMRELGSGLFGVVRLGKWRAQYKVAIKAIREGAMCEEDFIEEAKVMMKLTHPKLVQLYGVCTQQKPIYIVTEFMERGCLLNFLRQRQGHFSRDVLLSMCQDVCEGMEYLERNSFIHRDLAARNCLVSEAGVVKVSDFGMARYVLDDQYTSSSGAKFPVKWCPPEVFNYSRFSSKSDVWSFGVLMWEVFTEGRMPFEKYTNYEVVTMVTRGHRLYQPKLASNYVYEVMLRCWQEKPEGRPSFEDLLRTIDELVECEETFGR

[6] = biological target: T3, Serine/threonine-protein kinase DCLK2 (Homo sapiens) (UniProt Q8N568); assay: Selectivity interaction (KinomeScan (DiscoverX)) EUB0000618a DCLK2; details: at 10 µM
T3 sequence (whole entry): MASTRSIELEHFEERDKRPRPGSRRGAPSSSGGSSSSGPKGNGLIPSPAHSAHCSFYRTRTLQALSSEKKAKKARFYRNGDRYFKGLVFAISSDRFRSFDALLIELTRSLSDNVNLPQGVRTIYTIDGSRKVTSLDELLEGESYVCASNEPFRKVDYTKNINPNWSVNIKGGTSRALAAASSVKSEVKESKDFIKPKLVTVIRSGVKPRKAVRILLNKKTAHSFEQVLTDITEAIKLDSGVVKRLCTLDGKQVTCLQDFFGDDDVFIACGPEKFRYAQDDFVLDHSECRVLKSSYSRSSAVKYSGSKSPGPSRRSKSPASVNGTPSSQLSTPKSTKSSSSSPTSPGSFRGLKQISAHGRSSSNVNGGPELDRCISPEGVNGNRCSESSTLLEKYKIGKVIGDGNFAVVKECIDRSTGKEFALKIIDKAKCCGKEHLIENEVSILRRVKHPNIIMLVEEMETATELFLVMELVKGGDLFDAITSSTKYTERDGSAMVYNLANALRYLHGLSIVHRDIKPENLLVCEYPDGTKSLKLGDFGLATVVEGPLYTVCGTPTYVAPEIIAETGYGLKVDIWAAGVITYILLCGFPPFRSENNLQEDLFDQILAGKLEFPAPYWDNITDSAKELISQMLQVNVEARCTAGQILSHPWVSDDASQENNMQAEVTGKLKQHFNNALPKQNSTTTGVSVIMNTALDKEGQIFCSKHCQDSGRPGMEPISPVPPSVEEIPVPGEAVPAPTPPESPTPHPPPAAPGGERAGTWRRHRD

Sequence of Serine/threonine-protein kinase 33 (Homo sapiens) (Q9BYT3 whole entry, looked up): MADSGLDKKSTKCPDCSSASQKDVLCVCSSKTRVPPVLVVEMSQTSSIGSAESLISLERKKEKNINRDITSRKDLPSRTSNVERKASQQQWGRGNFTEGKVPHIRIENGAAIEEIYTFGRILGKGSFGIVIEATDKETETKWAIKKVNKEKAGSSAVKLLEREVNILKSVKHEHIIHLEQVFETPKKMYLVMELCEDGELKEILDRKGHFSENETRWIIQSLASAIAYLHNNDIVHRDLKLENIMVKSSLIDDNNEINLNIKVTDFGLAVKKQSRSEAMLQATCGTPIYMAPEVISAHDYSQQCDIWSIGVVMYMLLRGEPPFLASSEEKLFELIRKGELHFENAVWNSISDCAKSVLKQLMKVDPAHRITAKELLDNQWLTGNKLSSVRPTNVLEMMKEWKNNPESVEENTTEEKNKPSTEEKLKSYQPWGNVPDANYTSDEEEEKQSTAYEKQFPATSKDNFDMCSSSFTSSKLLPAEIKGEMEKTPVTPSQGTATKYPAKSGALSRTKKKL

SMILES: CNC(=O)Nc1ccc(-c2nc(N3CC4CCC(C3)O4)c3cnn(C4CCC5(CC4)OCCO5)c3n2)cc1
% of control [1]: 82%

% of inhibition [2]: -1%
SMILES: CC[C@@H]1[C@H](F)C(=O)N[C@@H]1COc1nccc2cc(C(N)=O)c(OC)cc12 [ZIMLOVISERTIB]

SMILES: COCC(=O)NC/C=C/c1ccc2ncnc(Nc3ccc(Oc4ccc(C)nc4)c(C)c3)c2c1 [CP-724714]
% of control [3]: 69%

SMILES: COc1cc(Nc2nc(C)cc(-c3cnn4nc(OC)ccc34)n2)cc(C(F)(F)F)c1
% of control [4]: 80%

SMILES: CCC(=O)N1CCN(c2ccc(-n3c(=O)ccc4cnc5ccc(-c6cnc7ccccc7c6)cc5c43)cc2C(F)(F)F)CC1
% of control [5]: 99%

SMILES: O[C@H]1CC[C@H](Nc2ncc3nc(Nc4c(F)cc(F)cc4F)n([C@H]4CCOC4)c3n2)CC1
% of control [6]: 100%
